Experiments:
Format in all cases: in vivo
VERPE: Veronica persica [1] = test: Post-emergence herbicidal effect; conditions: dosage 320 g/ha
Outline: (§1)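 Weeds grown from seed in sandy loam in the greenhouse were sprayed at the one-leaf stage, 2 to 3 weeks after sowing. Compounds formulated as WP or EC were applied as aqueous suspension or emulsion with 0.5% additive at 600 l/ha. Activity was scored visually after about 3 weeks versus untreated controls (100% = dead, 0% = as control).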

[2] = tested on: POLCO: Polygonum convolvulus; test: Post-emergence herbicidal effect
Outline: as §1

SETVI: Setaria viridis [3] = test: Post-emergence herbicidal effect; conditions: dosage 320 g/ha
Outline: as §1

AVEFA: Avena fatua [4] = test: Post-emergence herbicidal effect; conditions: dosage 320 g/ha
Outline: as §1

[5] = tested on: ALOMY: Alopecurus myosuroides; test: Post-emergence herbicidal effect; conditions: dosage 320 g/ha
Outline: as §1

VIOTR: Viola tricolor [6] = test: Post-emergence herbicidal effect
Outline: as §1

[7] = tested on: ABUTH: Abutilon theophrasti; test: Post-emergence herbicidal effect; conditions: dosage 320 g/ha
Outline: as §1

[8] = tested on: ECHCG: Echinochloa crus-galli; test: Post-emergence herbicidal effect; conditions: dosage 320 g/ha
Outline: as §1

PHBPU: Ipomoea purpurea [9] = test: Post-emergence herbicidal effect; conditions: dosage 320 g/ha
Outline: as §1

STEME: Stellaria media [10] = test: Post-emergence herbicidal effect
Outline: as §1

[11] = tested on: AMARE: Amaranthus retroflexus; test: Post-emergence herbicidal effect; conditions: dosage 320 g/ha
Outline: as §1

[12] = tested on: MATIN: Matricaria inodora; test: Post-emergence herbicidal effect
Outline: as §1

VERPE: Veronica persica [13] = test: Pre-emergence herbicidal effect; conditions: dosage 320 g/ha
Outline: (§2)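 Visual percent scoring against untreated pots after roughly 3 weeks in the greenhouse (100% = dead, 0% = no effect). Treatment was a pre-emergence soil-surface spray of WP or EC formulations in water plus 0.5% additive, 600 l/ha.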

[14] = tested on: POLCO: Polygonum convolvulus; test: Pre-emergence herbicidal effect; conditions: dosage 320 g/ha
Outline: as §2

CYPES = test: Pre-emergence herbicidal effect
Outline: as §2

SETVI: Setaria viridis [15] = test: Pre-emergence herbicidal effect; conditions: pre-emergence; dosage 320 g/ha
Outline: as §2

AVEFA: Avena fatua [16] = test: Pre-emergence herbicidal effect; conditions: dosage 320 g/ha
Outline: as §2

[17] = tested on: ALOMY: Alopecurus myosuroides; test: Pre-emergence herbicidal effect; conditions: pre-emergence; dosage 320 g/ha
Outline: as §2

VIOTR: Viola tricolor [18] = test: Pre-emergence herbicidal effect; conditions: dosage 320 g/ha
Outline: as §2

[19] = tested on: ABUTH: Abutilon theophrasti; test: Pre-emergence herbicidal effect; conditions: dosage 320 g/ha
Outline: as §2

[20] = tested on: ECHCG: Echinochloa crus-galli; test: Pre-emergence herbicidal effect; conditions: pre-emergence; dosage 320 g/ha
Outline: as §2

LOLRI: Lolium rigidum = test: Pre-emergence herbicidal effect; conditions: dosage 320 g/ha
Outline: as §2

PHBPU: Ipomoea purpurea [21] = test: Pre-emergence herbicidal effect; conditions: dosage 320 g/ha
Outline: as §2

STEME: Stellaria media [22] = test: Pre-emergence herbicidal effect; conditions: pre-emergence; dosage 320 g/ha
Outline: as §2

[23] = tested on: AMARE: Amaranthus retroflexus; test: Pre-emergence herbicidal effect; conditions: pre-emergence; dosage 320 g/ha
Outline: as §2

[24] = tested on: MATIN: Matricaria inodora; test: Pre-emergence herbicidal effect; conditions: pre-emergence; dosage 320 g/ha
Outline: as §2

HORMU: Hordeum murinum = test: Pre-emergence herbicidal effect; conditions: pre-emergence; dosage 320 g/ha
Outline: as §2

CC(C)(O)c1cnc(N[C@@H]2CCCc3ccccc32)nc1 [Example 1.8, 2-{2-[(1R)-1,2,3,4-Tetrahydronaphthalen-1-ylamino]pyrimidin-5-yl}propan-2-ol] was tested, and the “Herbicidal action against VERPE” value (VERPE: Veronica persica [1]) was 90%, the “Herbicidal action against POLCO” value ([2]; dosage 320 g/ha) was 90% and the “Herbicidal action against SETVI” value (SETVI: Setaria viridis [3]) was 100%. For the same compound, the “Herbicidal action against AVEFA” value (AVEFA: Avena fatua [4]) was 100%, the “Herbicidal action against ALOMY” value [5] was 70% and the “Herbicidal action against VIOTR” value (VIOTR: Viola tricolor [6]; dosage 320 g/ha) was 90%. For the same compound, the “Herbicidal action against ABUTH” value [7] was 90%, the “Herbicidal action against ECHCG” value [8] was 100% and the “Herbicidal action against PHBPU” value (PHBPU: Ipomoea purpurea [9]) was 80%. The “Herbicidal action against STEME” value (STEME: Stellaria media [10]; dosage 320 g/ha) was 100%, the “Herbicidal action against AMARE” value [11] was 100% and the “Herbicidal action against MATIN” value ([12]; dosage 320 g/ha) was 100%. The “Herbicidal action against VERPE” value (VERPE: Veronica persica [13]) was 100%, the “Herbicidal action against POLCO” value [14] was 100% and the “Herbicidal action against CYPES” value (CYPES; dosage 320 g/ha) was 70%. For the same compound, the “Herbicidal action against SETVI” value (SETVI: Setaria viridis [15]) was 100%, the “Herbicidal action against AVEFA” value (AVEFA: Avena fatua [16]) was 100% and the “Herbicidal action against ALOMY” value [17] was 100%. For the same compound, the “Herbicidal action against VIOTR” value (VIOTR: Viola tricolor [18]) was 100%, the “Herbicidal action against ABUTH” value [19] was 100% and the “Herbicidal action against ECHCG” value [20] was 100%. For the same compound, the “Herbicidal action against LOLRI” value (LOLRI: Lolium rigidum) was 100%, the “Herbicidal action against PHBPU” value (PHBPU: Ipomoea purpurea [21]) was 100% and the “Herbicidal action against STEME” value (STEME: Stellaria media [22]) was 100%. For the same compound, the “Herbicidal action against AMARE” value [23] was 100%, the “Herbicidal action against MATIN” value [24] was 100% and the “Herbicidal action against HORMU” value (HORMU: Hordeum murinum) was 100%.
In the case of Cc1ccc2c(c1)[C@H](Nc1ncc(C(C)(C)O)c(N)n1)[C@@H](C)C2 [drawing 3, reference compound], the “Herbicidal action against CYPES” value (CYPES; dosage 80 g/ha) is reported as 60% and the “Herbicidal action against CYPES” value (CYPES; dosage 320 g/ha) is reported as 70%.
For Cc1ccc2c(c1)[C@H](Nc1ncc(C(C)(C)O)c(N)n1)[C@@H](C)C2 [drawing 12, reference compound], the “Herbicidal action against POLCO” value ([2]; dosage 80 g/ha) was 0%, the “Herbicidal action against POLCO” value ([2]; dosage 320 g/ha) was 0% and the “Herbicidal action against VIOTR” value (VIOTR: Viola tricolor [6]; dosage 80 g/ha) was 60%. The “Herbicidal action against PHBPU” value (PHBPU: Ipomoea purpurea [9]) was 50%, the “Herbicidal action against STEME” value (STEME: Stellaria media [10]; dosage 80 g/ha) was 0% and the “Herbicidal action against STEME” value (STEME: Stellaria media [10]; dosage 320 g/ha) was 0%. The “Herbicidal action against MATIN” value ([12]; dosage 80 g/ha) was 0% and the “Herbicidal action against MATIN” value ([12]; dosage 320 g/ha) was 60%.
In the case of Cc1ccc2c(c1)[C@H](Nc1ncc(C(C)(C)O)c(N)n1)[C@@H](C)C2 [drawing 13, reference compound], the “Herbicidal action against POLCO” value ([2]; dosage 320 g/ha) is reported as 0%, the “Herbicidal action against VIOTR” value (VIOTR: Viola tricolor [6]; dosage 80 g/ha) is reported as 60% and the “Herbicidal action against PHBPU” value (PHBPU: Ipomoea purpurea [9]) is reported as 50%. The “Herbicidal action against STEME” value (STEME: Stellaria media [10]; dosage 80 g/ha) was 0%, the “Herbicidal action against STEME” value (STEME: Stellaria media [10]; dosage 320 g/ha) was 0% and the “Herbicidal action against MATIN” value ([12]; dosage 80 g/ha) was 0%.

— US11477982B2, “2-amino-5-oxyalkyl-pyrimidine derivatives and their use for controlling undesired plant growth” (Bayer CropScience Aktiengesellschaft, priority 2017, dated 2022)
